Row | Compound | melting point
1 | O=C(O)c1cnn2c(C(F)(F)F)cc(-c3cccc(C(F)(F)F)c3)nc12 | 212 °C
2 | CS(=O)(=O)Cc1ccc(C(=NN)c2ccc(Cl)cc2)cc1 | 52 to 54 °C
3 | O=C(O)COCc1cc2cc(Cl)ccc2n1S(=O)(=O)c1ccccc1 | 140 to 142 °C
4 | CC(C)(C)OC(=O)c1cccc(-c2ccc([N+](=O)[O-])cc2)c1 | 110 to 111 °C
5 | C#CCOc1ccc(C(=O)OC)c(OC)c1 | 88 °C
6 | CC(C)(C)OC(=O)N[C@@H](Cc1ccc(C(=N)NC(=O)OCc2ccccc2)cc1)C(=O)O | 112 to 115 °C
7 | CSC1CC(=O)N1CC(=O)CS(=O)(=O)c1ccccc1 (stereo unspecified) | 82 to 84 °C
8 | CC(=O)NC[C@H]1CN(c2ccc(C3=CCN(C(=O)COC(C)=O)CC3)c(F)c2)C(=O)O1 | 188 to 191 °C
9 | O=C1c2cc(Br)ccc2-n2c1nc1ccccc1c2=O | 288 to 290 °C
10 | CC(NC(=O)C(CS)C(C)c1ccc(F)c(F)c1)C(=O)O (stereo unspecified) | 61 °C
11 | Cc1ccc(C)c(C2=C(O)C(CC3CCS(=O)(=O)CC3)NC2=O)c1 (stereo unspecified) | 244 to 246 °C
12 | Cc1cc(OC/C=C/c2ccccc2)c(C)c(C)c1NC=O | 197 to 199 °C
13 | O=c1c(NCCCOc2cccc(CN3CCCCC3)c2)c(NCc2cccnc2)c1=O | 174 to 178 °C
14 | c1ccc2c(c1)COc1ccccc1-2 | 97 °C
15 | Cc1nc(C(=O)NN(C)C)c2n1-c1ccc(Cl)cc1C(c1ccccc1F)NC2 (stereo unspecified) | 218 to 219 °C
16 | C=C(C(=O)OC)c1ccc2c(=O)c3ccccc3ccc2c1 | 153 to 156 °C
17 | CCS(=O)(=O)N[C@H](C(=O)NCc1ccc(OCC#Cc2ccc(Cl)cc2)c(OC)c1)C(C)C | 162 to 163 °C
18 | NC(=S)N(c1ccccc1)c1cccc(NNC=O)c1 | 143 to 145 °C
19 | CNS(=O)(=O)Cc1ccc2[nH]cc(CCN=CNc3cccnc3)c2c1 | 70 to 71 °C
20 | Cc1ccc2c(c1)[nH]c(=O)n2CCCl | 120 °C
21 | O=C(Nc1ccc([N+](=O)[O-])cc1)N(O)C1CCCCCCC1 | 143 to 144 °C
22 | COc1ccc(-n2nc(CCC(=O)NCC(=O)O)cc2-c2ccc(Cl)cc2)cc1 | 186 to 188 °C
23 | COCc1nnc(-c2ccc3occ(-c4cccc(OC(F)(F)F)c4)c3c2)o1 | 90 to 91 °C
24 | CCn1cc(C(=O)O)c(=O)c2cc(F)c(N3CCN(C(C)=O)CC3)cc21 | 300 °C
25 | CCON=C(C)C1CCC(=O)CC1=O (stereo unspecified) | 105 to 112 °C
26 | COc1cn(-c2ccccc2F)nc(C(C)=O)c1=O | 154 to 156 °C

Row | Compound | melting point
27 | O=C(Nc1ccccc1)OCc1ccccc1 | 92 to 96 °C
28 | Cc1cccc(C)c1N=CNc1c(C)cccc1C | 174 to 176 °C
29 | O=S(=O)(Nc1ccc2c(OCc3csc(-c4ccc(F)cc4F)n3)cccc2c1)C(F)(F)F | 191 to 192 °C
30 | Cn1nc(-c2cnc(N)nc2-c2cccc(O)c2)ccc1=O | 285 °C
31 | N#Cc1c(OC(F)(F)Br)ncnc1N1CCc2ccccc2CC1 | 95 to 100 °C
32 | O=C1CCCCCCCCCCCCCCCCCCCCCC(O)C(=O)OCCCC1 (stereo unspecified) | 67 to 68 °C
33 | CCOc1ccc(C=O)c(F)c1F | 70 °C
34 | O=C(/C=C/c1ccc(O)c(O)c1)Nc1ccccc1C(=O)O | 204 to 206 °C
35 | Clc1ccccc1Oc1c(Cl)ncnc1Cl | 76 to 77 °C
36 | CCOc1nc2c(nc1C(=O)Nc1nccs1)c(C)nn2CC | 158 to 159 °C
37 | CC(C)(C)NC(=O)c1ccccc1NS(=O)(=O)C(F)(F)F | 108 to 110 °C
38 | CCOC(=O)Nc1cc(C(=O)N(C)OC)c(Cl)cc1F | 121 °C
39 | CC(=O)OC(C(Oc1ccc(Cl)cc1)n1ccnc1)C(C)(C)C (stereo unspecified) | 81 to 91 °C
40 | Cc1cc2c(cc1Br)C(O)CC(C)(C)O2 (stereo unspecified) | 92 to 93 °C
41 | CC[C@H](c1ccc(C(F)(F)F)cc1)N(Cc1ccc(C(=O)O)cc1)S(=O)(=O)c1ccc(Cl)cc1 | 105 to 107 °C
42 | O=C(O)CC=CC12CC(c3ccccc31)c1ccccc12 | 166 to 167 °C
43 | CC(=O)Nc1ccc2[nH]c(=O)c(=O)n(CC(C)(C)C)c2c1 | 294 to 295 °C
44 | O=S(=O)(c1ccc(Cl)cc1)C(CCCCF)c1cc(F)ccc1F (stereo unspecified) | 77 to 78 °C
45 | CCCCOC(=O)CN(Cc1ccccc1OC)S(=O)(=O)c1ccc2c(Cl)cnc(Cl)c2c1 | 106 to 108 °C
46 | COC(=O)c1sccc1Nc1ccc(Cl)cc1[N+](=O)[O-] | 207 to 208 °C
47 | CN1C(=O)CNC(c2cccc(Cl)c2)c2cc(C(O)(c3ccc(Cl)cc3)c3cncn3C)ccc21 (stereo unspecified) | 208 °C
48 | CC(=O)OCC(=O)C1(O)CCC2C3CCC4=CC(=O)C=CC4(C)C3(F)C(O[Si](C)(C)C)CC21C (stereo unspecified) | 203 to 204 °C
49 | CSc1ccc(-c2oncc2C(=O)C2CC2)nc1 | 103 to 104 °C
50 | COc1ccc(C(=O)c2c(C)n(C)c(=O)n2C)cc1 | 109 to 111 °C
51 | COc1ccc(C(=O)Nc2ccc3ccc(Oc4c(C)cccc4C)nc3n2)cc1 | 174 °C

From a melting point compilation (Tetko et al.; mined from patent text by program, amines drawn as free bases though some values may be those of a salt)
